Test results published in patent publication US7754202B1, “Methods of controlling cell differentiation and growth using a fusion protein and a drug” (Stanford University, priority 1998, dated 2010).
“And” between values parts separate entries of the source, which are not always exact repeats. Equal values may be shown once.

Columns and labels:
cells = assay: Immunosuppressive activity or other toxicity to cells; assay type: cell-based; conditions: in experiments to date
[1] = system: MH cells expressing chimeric receptors; assay: DNA synthesis (BrdU incorporation) in MH cells expressing FKBP chimeric receptors; assay type: cell-based, monkey (Macaca fascicularis); conditions: serum-starved MH cells, 3 days after AP20187 addition; compared with nonspecific induction by AP20187 alone
Protocol: FIG. 5. DNA synthesis in MH cells expressing FKBP chimeric receptors after stimulation with AP20187. 5×10^4 MH cells were plated per well (24 well plate) in the presence of FCS. 24 hours after retrovirus infection, culture medium was replaced by serum-free medium and cells were starved for 6 days. At this time point AP20187 was added to one set of cells and BrdU incorporation was measured three days after induction. BrdU labeled cells were counted in four independent areas for each sample (N=3) and expressed as the percentage of BrdU (+) cells. The (+) and (−) symbols after the chimeric gene designations indicates the presence and absence of AP20187, respectively. […]
To test the proliferation properties of MH cells, cellular DNA replication based on incorporation of BrdU was analyzed. […] After this, BrdU labeled DNA was detected in cell nuclei by immuno-histochemistry with BrdU-specific antibodies.
Retroviruse vectors expressing the chimeric receptors provided in TABLE 9 were prepared as a means for gene transfer into hepatocytes. […] Next, the percentage of MH cells grown in the presence of FCS and HGF that can be transduced by an amphotropic β-Gal virus after an incubation of 5 hours at an MOI of 1 cfu per cell was determined. […] At this time point AP20187 was added to one set of cells and BrdU incorporation was measured three days after induction. […]

spleen = assay: In vivo selection with MFM vector: spleen weight; set-up: species or system B6D2F1 mice; conditions: after 40 days
Protocol: (§1) Marrow cells from B6D2F1 mice were transduced as follows: fluorouracil, 150 mg/kg, was injected intraperitoneally into female B6D2F1 mice. Forty-eight hours later, marrow cells were harvested and cultured for 48 hours in DMEM containing 16% fetal calf serum, 5% IL-3 conditioned medium, 100 ng/ml recombinant IL-6, and 50 ng/ml recombinant murine stem cell factor in a 37° C., 5% CO2 incubator. After 48 hours of prestimulation, cells were transferred onto irradiated (1500 cGy) producer cells and cocultivated using identical growth conditions except for the addition of polybrene (8 μg per ml). The producer cells generate retroviral particles containing the MFM vector that are able to infect the bone marrow cells. Therefore, the MFM retrovirus is introduced into the bone marrow cells during the period of cocultivation. Marrow cells were harvested after 48 hours of cocultivation and 8×10^6 cells were injected into each of 10 lethally irradiated (1050 cGy) B6D2F1 mice. Immediately following transplantation, five mice received intraperitoneal injections of AP20187 daily at a dose of 2 mg/kg/day for forty consecutive days. Five control mice received daily injections of the drug diluent (see below) without AP20187.
(§2) AP20187 was prepared as follows: Drug was solubilized in ethanol, then PEG 400 was added. Finally, a mixture of water and Tween 80 was added to achieve final concentrations of ethanol of 4%, PEG400 10% and Tween 1.4%.
(§3) After 40 days of drug administration, splenectomies were performed; spleens were weighed and spleen cells were tested in clonogenic assays to determine the frequency of genetically modified progenitor cells.

[2] = system: genetically modified progenitor cells in the spleen; assay: In vivo selection with MFM vector: G418 resistant colonies in the spleen; set-up: species or system B6D2F1 mice; conditions: after 40 days
Protocol: as §1, §2, §3

[3] = system: primary murine bone marrow cells expressing the F36Vmpl fusion protein; assay: Response of marrow cells expressing F36Vmpl (MFM vector) to AP20187; assay type: cell-based; conditions: compared with FK1012 (data not shown)
Excerpt: A MSCVneo-based retroviral vector encoding a fusion protein identical to F1mpl except for the presence of the F36V mutation was built and tested. This vector, MFM (FIG. 4), has been used to derive a genetically stable, high titer ecotropic producer cell line using the methods described in Example 5.

[4] = system: genetically modified progenitor cells in the femur; assay: In vivo selection with MFM vector: G418 resistant colonies in the femur (bone marrow aspirates); set-up: species or system B6D2F1 mice
Protocol: as §1, §2
The presence of the neo gene in the MFM vector allows the frequency of genetically modified progenitor cells to be determined by performing clonogenic assays either in the presence or absence of G418. After 32 days of drug administration, bone marrow aspirates were performed and the frequency of clonogenic progenitor cells was determined. Results are shown as follows:
Sufficient numbers of bone marrow cells were obtained on the aspirates of one control and one drug treated mouse (numbers 191 and 195, respectively) to permit Southern analysis.

[5] = system: hematopoietic cell subsets in the spleen; assay: In vivo selection with MFM vector: flow cytometry of hematopoietic cell subsets in the spleen; set-up: species or system B6D2F1 mice; TER119 (erythroid) cells in the spleen / CD11b (myeloid) cells in the spleen / CD41 (megakaryocytic) cells in the spleen / CD3 (T-lymphoid) cells in the spleen / B220 (B-lymphoid) cells in the spleen: unit not given here
Protocol: as §1, §2
To characterize the types of cells expanding in response to AP20187, flow cytometry was performed using antibodies directed against myeloid (CD11b), erythroid (TER119), megakaryocytic (CD41), B-lymphoid (B-220) and T-lymphoid (CD3) cells.

endogenous FKBP12 = endogenous FKBP12 (Homo sapiens, UniProt P62942); assay: Binding to endogenous FKBP12
Sequence of endogenous FKBP12 (P62942 whole entry, species assumed): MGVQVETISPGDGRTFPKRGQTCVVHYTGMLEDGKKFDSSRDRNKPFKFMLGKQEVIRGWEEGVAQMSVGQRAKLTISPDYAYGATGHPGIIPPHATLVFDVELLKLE

[6] = individual mice, 2 mg/kg/day i.p., 2 mg/kg/day
[7] = group mean, spleen, flow cytometry
[8] = individual mice, flow cytometry, after 40 days

For `CC[C@H](C(=O)N1CCCC[C@H]1C(=O)O[C@H](CCc1ccc(OC)c(OC)c1)c1cccc(OCC(=O)NCC(CNC(=O)COc2cccc([C@@H](CCc3ccc(OC)c(OC)c3)OC(=O)[C@@H]3CCCCN3C(=O)[C@@H](CC)c3cc(OC)c(OC)c(OC)c3)c2)CN(C)C)c1)c1cc(OC)c(OC)c(OC)c1` [AP20187], the “immunosuppressive activity or other toxicity to cells” value (cells) was “no immunosuppressive activity or other toxicity to cells”, the “effect on DNA proliferation (BrdU incorporation)” value [1] was “clear effect on DNA proliferation in MH expressing chimeric receptors” and the “Spleen Weight, Mean” value (spleen; group mean (+/−)) was 208.9 (+/−43.5) mg. For the same molecule, the “Spleen Weight” value (spleen; [6]) was 200 mg and 190 mg and 279 mg and 213 mg and 162 mg, the spleen size (spleen; versus control group) was “significant increase in spleen size” and the “G418 Resistant (spleen colonies), Mean” value ([2]; group mean (+/−)) was 9 (+/−8.7%). For the same molecule, the “G418 Resistant (spleen colonies)” value [2, 6] was 4.1% and 5.2% and 6.4% and 24.5% and 4.8%, the “percentage of genetically modified progenitor cells in the spleen” value ([2]; versus control group) was “increased percentage of genetically modified progenitor cells in the spleen that did not achieve statistical significance” and the “in vivo half life” value (In vivo half life) was 9 h. For the same molecule, the “proliferative and differentiative responses” value [3] was “indistinguishable from those we have observed using FK1012”, the “mean number of G418 resistant colony forming cells in the femur relative to control group” value ([4]; after 32 days, did not achieve statistical significance) was “approximately 2 fold” and the “Percentage of G418 Resistant Colonies (femur), Mean” value ([4]; group mean (+/−), 2 mg/kg/day i.p., after 32 days) was 20.9 (+/−13.3) %. For the same molecule, the “Percentage of G418 Resistant Colonies (femur)” value ([4]; individual mice, 2 mg/kg/day i.p., after 32 days of drug administration, 2 mg/kg/day) was 39.3% and 14.7% and 17.7% and 28.1% and 4.6%, the “proviral signal by Southern analysis of bone marrow aspirates” value ([4]; one drug treated mouse (195) versus one control (191)) was “detectable only in the mouse that had received AP20187” and the “B220, mean (standard deviation)” value [5, 7] was 29.2 (5.1). The “CD3, mean (standard deviation)” value [5, 7] was 12.2 (8.2), the “CD11b, mean (standard deviation)” value [5, 7] was 10.2 (2.5) and the “CD41, mean (standard deviation)” value [5, 7] was 1.4 (1.1). The “TER119, mean (standard deviation)” value [5, 7] was 27.7 (8.1), the “B220 (B-lymphoid) cells in the spleen” value [5, 8] was 31.6 and 24.5 and 23.0 and 33.2 and 33.8 and the “CD3 (T-lymphoid) cells in the spleen” value [5, 8] was 24.4 and 8.4 and 4.8 and 6.5 and 16.8. For the same molecule, the “CD11b (myeloid) cells in the spleen” value [5, 8] was 9.5 and 7.8 and 12.8 and 8.2 and 13.0, the “CD41 (megakaryocytic) cells in the spleen” value [5, 8] was 0.7 and 0.5 and 1.1 and 3.3 and 1.4 and the “TER119 (erythroid) cells in the spleen” value [5, 8] was 21.0 and 28.2 and 40.8 and 27.4 and 21.1. For the same molecule, the “change in hematopoietic cell subsets in the spleen” value ([5]; versus control group) was “increase in myeloid (CD11b-positive) and erythroid (TER119-positive) cells in the spleen” and the “binding to endogenous FKBP12” value (endogenous FKBP12) was “does not bind to endogenous FKBP12”.
